According to patent US20090311217A1, “3-SUBSTITUTED-1H-INDOLE COMPOUNDS, THEIR USE AS MTOR KINASE AND PI3 KINASE INHIBITORS, AND THEIR SYNTHESES” (priority 2008, published 2009):
Read-outs that look alike come from different tables or passages of the source.

Legend:
Type in all cases: biochemical
human TOR = molecular target: T1, human TOR (Homo sapiens, UniProt P42345); assay: mTOR enzyme assay (DELFIA, His6-S6K substrate); conditions: read-out: mTOR Kinase Avg. IC50
T1 construct: FLAG

PI3K-alpha = PI3K-alpha (Homo sapiens, UniProt P42336); assay: PI3K-alpha fluorescence polarization assay; conditions: read-out: PI3Kα Avg. IC50
Chain of PI3K-alpha (P42336 whole entry, species assumed): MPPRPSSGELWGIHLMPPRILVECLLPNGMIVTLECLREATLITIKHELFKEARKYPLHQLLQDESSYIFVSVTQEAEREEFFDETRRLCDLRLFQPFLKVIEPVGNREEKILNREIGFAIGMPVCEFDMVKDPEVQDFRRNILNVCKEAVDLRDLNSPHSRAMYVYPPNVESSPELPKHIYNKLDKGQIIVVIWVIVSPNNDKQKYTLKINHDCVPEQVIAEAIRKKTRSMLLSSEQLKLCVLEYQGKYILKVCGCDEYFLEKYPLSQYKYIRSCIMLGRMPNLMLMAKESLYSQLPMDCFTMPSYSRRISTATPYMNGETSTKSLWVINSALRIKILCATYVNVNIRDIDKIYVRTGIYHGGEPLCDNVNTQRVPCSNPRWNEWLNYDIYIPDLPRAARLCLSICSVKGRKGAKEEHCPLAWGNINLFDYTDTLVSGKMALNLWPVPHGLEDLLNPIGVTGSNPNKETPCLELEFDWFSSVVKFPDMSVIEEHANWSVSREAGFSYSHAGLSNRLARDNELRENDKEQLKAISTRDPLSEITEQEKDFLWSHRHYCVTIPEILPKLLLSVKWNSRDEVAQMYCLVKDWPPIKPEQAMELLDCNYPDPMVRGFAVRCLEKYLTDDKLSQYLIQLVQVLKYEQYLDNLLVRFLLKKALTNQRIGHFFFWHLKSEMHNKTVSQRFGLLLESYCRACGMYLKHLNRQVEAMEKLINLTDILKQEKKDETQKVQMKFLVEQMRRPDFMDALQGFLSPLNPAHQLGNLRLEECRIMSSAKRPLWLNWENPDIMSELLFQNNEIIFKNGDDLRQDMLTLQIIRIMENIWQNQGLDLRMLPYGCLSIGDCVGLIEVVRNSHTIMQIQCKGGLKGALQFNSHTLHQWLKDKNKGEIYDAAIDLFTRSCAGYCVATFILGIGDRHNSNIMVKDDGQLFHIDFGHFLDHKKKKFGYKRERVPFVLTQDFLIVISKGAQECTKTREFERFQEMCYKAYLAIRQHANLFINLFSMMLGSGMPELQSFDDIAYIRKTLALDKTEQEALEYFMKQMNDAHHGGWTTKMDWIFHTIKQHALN
Chain of PI3K-alpha (P27986 whole entry partner, species assumed): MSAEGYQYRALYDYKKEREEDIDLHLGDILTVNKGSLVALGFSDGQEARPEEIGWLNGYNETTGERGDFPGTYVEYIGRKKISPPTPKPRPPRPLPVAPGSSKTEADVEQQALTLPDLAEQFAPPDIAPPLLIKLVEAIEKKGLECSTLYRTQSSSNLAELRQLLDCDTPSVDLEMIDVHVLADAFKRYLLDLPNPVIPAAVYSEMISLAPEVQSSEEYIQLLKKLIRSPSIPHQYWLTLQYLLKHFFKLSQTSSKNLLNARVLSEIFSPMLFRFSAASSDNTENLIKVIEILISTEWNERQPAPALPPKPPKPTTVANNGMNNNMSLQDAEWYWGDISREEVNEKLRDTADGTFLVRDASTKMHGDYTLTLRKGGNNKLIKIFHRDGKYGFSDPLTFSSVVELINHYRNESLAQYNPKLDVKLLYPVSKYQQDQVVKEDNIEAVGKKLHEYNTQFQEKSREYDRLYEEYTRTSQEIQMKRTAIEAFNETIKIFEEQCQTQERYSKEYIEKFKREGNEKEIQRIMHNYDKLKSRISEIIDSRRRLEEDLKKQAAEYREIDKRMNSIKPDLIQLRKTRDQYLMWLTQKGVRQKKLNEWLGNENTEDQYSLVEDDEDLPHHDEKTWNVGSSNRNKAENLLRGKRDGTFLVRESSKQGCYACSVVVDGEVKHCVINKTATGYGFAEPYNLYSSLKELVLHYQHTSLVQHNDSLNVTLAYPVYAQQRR

PI3K-gamma = PI3K-gamma (Homo sapiens, UniProt P48736); assay: PI3K-gamma fluorescence polarization assay
Chain of PI3K-gamma (P48736 whole entry, species assumed, the tested form may be a part): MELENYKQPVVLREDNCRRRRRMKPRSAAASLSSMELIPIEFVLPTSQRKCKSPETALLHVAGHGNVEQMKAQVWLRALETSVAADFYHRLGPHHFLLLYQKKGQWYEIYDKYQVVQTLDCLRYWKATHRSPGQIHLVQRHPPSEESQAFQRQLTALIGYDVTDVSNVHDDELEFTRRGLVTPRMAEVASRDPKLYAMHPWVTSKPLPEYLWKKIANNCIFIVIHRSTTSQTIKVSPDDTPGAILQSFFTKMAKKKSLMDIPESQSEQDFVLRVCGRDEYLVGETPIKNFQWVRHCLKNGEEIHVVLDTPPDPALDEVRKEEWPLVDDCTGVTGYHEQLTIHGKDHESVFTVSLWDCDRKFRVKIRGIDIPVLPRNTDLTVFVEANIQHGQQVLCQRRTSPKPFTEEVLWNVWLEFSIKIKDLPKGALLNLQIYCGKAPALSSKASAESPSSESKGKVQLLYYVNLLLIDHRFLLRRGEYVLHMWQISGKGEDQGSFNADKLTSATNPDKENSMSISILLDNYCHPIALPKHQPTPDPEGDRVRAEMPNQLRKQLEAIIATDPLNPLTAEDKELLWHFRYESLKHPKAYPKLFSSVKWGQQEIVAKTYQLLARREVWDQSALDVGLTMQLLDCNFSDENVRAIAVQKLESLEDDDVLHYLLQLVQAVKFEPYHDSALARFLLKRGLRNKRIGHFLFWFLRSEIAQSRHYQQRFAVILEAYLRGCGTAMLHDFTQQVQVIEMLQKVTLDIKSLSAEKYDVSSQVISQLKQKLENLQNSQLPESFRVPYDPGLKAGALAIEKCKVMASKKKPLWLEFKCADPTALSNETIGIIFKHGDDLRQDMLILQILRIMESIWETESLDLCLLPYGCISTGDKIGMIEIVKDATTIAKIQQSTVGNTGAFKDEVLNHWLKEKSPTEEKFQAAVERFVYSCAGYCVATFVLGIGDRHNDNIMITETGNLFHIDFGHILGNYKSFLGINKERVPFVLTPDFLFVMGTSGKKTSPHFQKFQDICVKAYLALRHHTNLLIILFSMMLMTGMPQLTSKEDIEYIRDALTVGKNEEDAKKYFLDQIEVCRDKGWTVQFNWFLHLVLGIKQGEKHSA
Outline: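 Inhibition is derived from a polarization signal: after a 1 h, 25° C kinase step (25 μM ATP, 2.5 μM diC8-PIP2, pH 7), EDTA stops the reaction and the GRP1 PH domain/TMR-IP4 pair reports lipid product.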

| Compound | IC50 (human TOR) | IC50 (PI3K-alpha) | IC50 (PI3K-gamma; PI3Kγ Avg. IC50) | IC50 (PI3K-gamma; read-out: PI3Kγ Avg. IC50) |
| --- | --- | --- | --- | --- |
| COc1ccc2[nH]c(-c3c(C)nn(C)c3C)c(/C=C3\Oc4ccc(NC(=O)Nc5ccc(C(=O)N(C)C6CCN(C)C6)cc5)cc4C3=O)c2c1 (stereo not drawn) [Compound 698, 4-({[(2Z)-2-{[5-methoxy-2-(1,3,5-trimethyl-1H-pyrazol-4-yl)-1H-indol-3-yl]methylidene}-3-oxo-2,3-dihydro-1-benzofuran-5-yl]carbamoyl}amino)-N-methyl-N-(1-methylpyrrolidin-3-yl)benzamide] | 1 nM | 0.3 nM | 3 nM |  |
| COc1ccc2c(c1)c(/C=C1\Oc3cc(O)ccc3C1=O)c(C1CC1)n2CCCN(C)C [Example 462, (2Z)-2-({2-Cyclopropyl-1-[3-(dimethylamino)propyl]-5-methoxy-1H-indol-3-yl}methylene)-6-hydroxy-1-benzofuran-3(2H)-one] | 635 nM | 21.5 nM | 1050 nM |  |
| Cn1cc(/C=C2\Oc3cc(O)cc(O)c3C2=O)c2c(-c3cccnc3)cccc21 [Example 375, (2Z)-4,6-Dihydroxy-2-[(1-methyl-4-pyridin-3-yl-1H-indol-3-yl)methylene]-1-benzofuran-3(2H)-one] | 28 nM | 2810 nM | 9500 nM |  |
| Cn1cc(/C=C2\Oc3cc(O)cc(O)c3C2=O)c2c(-c3ccc(C(=O)N4CCCC4)cc3)cccc21 [Example 396, (2Z)-4,6-Dihydroxy-2-({1-methyl-4-[4-(pyrrolidin-1-ylcarbonyl)phenyl]-1H-indol-3-yl}methylene)-1-benzofuran-3(2H)-one] | 30 nM | 547 nM | 448 nM |  |
| COc1ccc2c(c1)c(/C=C1\Oc3cc(O)ccc3C1=O)c(C)n2CCCN1CCC(C)CC1 [Example 460, (2Z)-6-Hydroxy-2-({5-methoxy-2-methyl-1-[3-(4-methylpiperidin-1-yl)propyl]-1H-indol-3-yl}methylene)-1-benzofuran-3(2H)-one] | 6500 nM | 18 nM | 1380 nM |  |
| COc1ccc2c(c1)c(/C=C1\Oc3cc(O)cc(O)c3C1=O)c(C(=O)N(C)C)n2CCN1CCC(O)CC1 [Example 311, 3-[(Z)-(4,6-Dihydroxy-3-oxo-1-benzofuran-2(3H)-ylidene)methyl]-1-[2-(4-hydroxypiperidin-1-yl)ethyl]-5-methoxy-N,N-dimethyl-1H-indole-2-carboxamide] | 88.5 nM | 8 nM | 144 nM |  |
| COc1ccc2[nH]c(C3CCCCC3)c(/C=C3\Oc4ccc(NC(=O)Nc5ccc(C(=O)N(C)CCN(C)C)cc5)cc4C3=O)c2c1 [Compound 688, 4-[({(2Z)-2-[(2-cyclohexyl-5-methoxy-1H-indol-3-yl)methylidene]-3-oxo-2,3-dihydro-1-benzofuran-5-yl}carbamoyl)amino]-N-[2-(dimethylamino)ethyl]-N-methylbenzamide] | 6 nM | 0.3 nM | 1.95 nM |  |
| N#CCCCCn1c(-c2ccccc2)c(C=C2Oc3cc(O)cc(O)c3C2=O)c2ccccc21 [Example 224, 5-{3-[(4,6-dihydroxy-3-oxo-1-benzofuran-2(3H)-ylidene)methyl]-2-phenyl-1H-indol-1-yl}pentanenitrile] | 480 nM | 751 nM | > 10000 nM |  |
| CCn1c(C)c(/C=C2\Oc3ccc(NC(=O)Nc4ccc(OCCN(C)C)cc4)cc3C2=O)c2cc(OC)ccc21 [Compound 667, 1-{4-[2-(dimethylamino)ethoxy]phenyl}-3-{(2Z)-2-[(1-ethyl-5-methoxy-2-methyl-1H-indol-3-yl)methylidene]-3-oxo-2,3-dihydro-1-benzofuran-5-yl}urea] | 153 nM | 1.87 nM | 11.3 nM |  |
| CC(C)Oc1ccc(-c2cccc3c2c(/C=C2\Oc4cc(O)cc(O)c4C2=O)cn3C)cc1 [Example 381, (2Z)-4,6-dihydroxy-2-{[4-(4-isopropoxyphenyl)-1-methyl-1H-indol-3-yl]methylene}-1-benzofuran-3(2H)-one] | 180 nM | 2740 nM | 3950 nM |  |
| COc1ccc2c(c1)c(/C=C1\Oc3cc(O)cc(C)c3C1=O)c(C)n2CCCN(C)C [Example 468, (2Z)-2-({1-[3-(Dimethylamino)propyl]-5-methoxy-2-methyl-1H-indol-3-yl}methylene)-6-hydroxy-4-methyl-1-benzofuran-3(2H)-one] | 2200 nM | 48.5 nM | 3200 nM |  |
| N#CCCCn1cc(C=C2Oc3cc(O)cc(O)c3C2=O)c2c(Br)cccc21 [Example 230, 4-{4-bromo-3-[(4,6-dihydroxy-3-oxo-1-benzofuran-2(3H)-ylidene)methyl]-1H-indol-1-yl}butanenitrile] | 3400 nM | 2020 nM | > 10000 nM |  |
| (2Z)-2-[(4-Bromo-1-methyl-1H-indol-3-yl)methylene]-4,6-dimethoxybenzofuran-3(2H)-one [Example 408] | > 20000 nM | 3310 nM |  | 1940 nM |
| CCn1c(C)c(/C=C2\Oc3ccc(NC(=O)Nc4ccc(C(=O)NCCNC)cc4)cc3C2=O)c2cc(OC)ccc21 [Compound 659, 4-[({(2Z)-2-[(1-ethyl-5-methoxy-2-methyl-1H-indol-3-yl)methylene]-3-oxo-2,3-dihydro-1-benzofuran-5-yl}carbamoyl)amino]-N-[2-(methylamino)ethyl]benzamide] | 15 nM | 0.3 nM | 2.2 nM |  |
| Cn1c(-c2ccncc2)c(C=C2Oc3cc(O)cc(O)c3C2=O)c2ccccc21 [Example 190, 4,6-dihydroxy-2-[(1-methyl-2-pyridin-4-y1-1H-indol-3-yl)methylene]-1-benzofuran-3(2H)-one] | 120 nM | 2120 nM | 8540 nM |  |
| COc1ccc2[nH]c(-c3c(C)nn(C)c3C)c(/C=C3\Oc4ccc(NC(=O)Nc5ccc(N(C)C(=O)CCN(C)C)cc5)cc4C3=O)c2c1 [Compound 696, N-(4-{[(2-{[5-methoxy-2-(1,3,5-trimethyl-1H-pyrazol-4-yl)-1H-indol-3-yl]methylidene}-3-oxo-2,3-dihydro-1-benzofuran-5-yl)carbamoyl]amino}phenyl)-N,N3,N3-trimethyl-b-alaninamide] | 5 nM | 3 nM | 48 nM |  |
| CNC(=O)Nc1ccc2c(c1)C(=O)/C(=C/c1c(-c3c(C)nn(C)c3C)[nH]c3c(F)c(F)c(OC)cc13)O2 [Compound 713, 1-[(2Z)-2-{[6,7-difluoro-5-methoxy-2-(1,3,5-trimethyl-1H-pyrazol-4-yl)-1H-indol-3-yl]methylidene}-3-oxo-2,3-dihydro-1-benzofuran-5-yl]-3-methylurea] | 45 nM | 14 nM | 70.5 nM |  |
| COc1ccc2c(c1)c(/C=C1\Oc3cc(O)c(C)cc3C1=O)c(C)n2CCCN(C)C [Example 459, (2Z)-2-({1-[3-(Dimethylamino)propyl]-5-methoxy-2-methyl-1H-indol-3-yl}methylene)-6-hydroxy-5-methyl-1-benzofuran-3(2H)-one] | > 20000 nM | 191 nM | 6690 nM |  |
| CNC(=O)Nc1ccc2c(c1)C(=O)/C(=C/c1c(-c3c(OC)cccc3OC)[nH]c3ccc(OC)cc13)O2 [Compound 637, 1-[(2Z)-2-{[2-(2,6-dimethoxyphenyl)-5-methoxy-1H-indol-3-yl]methylene}-3-oxo-2,3-dihydro-1-benzofuran-5-yl]-3-methylurea] | 35 nM | 2.2 nM | 18.5 nM |  |
| Cn1cc(/C=C2\Oc3cc(O)cc(O)c3C2=O)c2c(-c3ccccc3N)cccc21 [Example 419, (2Z)-2-{[4-(2-Aminophenyl)-1-methyl-1H-indol-3-yl]methylene}-4,6-dihydroxy-1-benzofuran-3(2H)-one] | 24 nM | 1070 nM | > 10000 nM |  |
| COc1ccc2c(c1)c(/C=C1\Oc3ccc(NC(=O)Nc4ccc(NC(=O)CCN(C)C)cc4)cc3C1=O)c(C)n2CCN1CCN(C)CC1 [Compound 685, N-[4-({[(2Z)-2-({5-methoxy-2-methyl-1-[2-(4-methylpiperazin-1-yl)ethyl]-1H-indol-3-yl}methylidene)-3-oxo-2,3-dihydro-1-benzofuran-5-yl]carbamoyl}amino)phenyl]-N3,N3-dimethyl-b-alaninamide] | 16 nM | 0.8 nM | 115 nM |  |
| COc1cc(F)c2[nH]c(-c3c(C)nn(C)c3C)c(/C=C3\Oc4ccc(NC(=O)Nc5ccc(C(=O)NCCN(C)C)cc5)cc4C3=O)c2c1 [Compound 733, N-[2-(dimethylamino)ethyl]-4-({[(2Z)-2-{[7-fluoro-5-methoxy-2-(1,3,5-trimethyl-1H-pyrazol-4-yl)-1H-indol-3-yl]methylidene}-3-oxo-2,3-dihydro-1-benzofuran-5-yl]carbamoyl}amino)benzamide] | < 1 nM | 0.3 nM | 3 nM |  |
| Cn1cc(/C=C2\Oc3cc(O)cc(O)c3C2=O)c2c(-c3ccccc3F)cccc21 [Example 366, (2Z)-2-{[4-(2-Fluorophenyl)-1-methyl-1H-indol-3-yl]methylene}-4,6-dihydroxy-1-benzofuran-3(2H)-one] | 75.5 nM | 1090 nM | 3930 nM |  |
| Cn1cc(/C=C2\Oc3cc(O)cc(O)c3C2=O)c2c(-c3ccc(NCCN4CCOCC4)nc3)cccc21 [Example 402, (2Z)-4,6-Dihydroxy-2-[(1-methyl-4-{6-[(2-morpholin-4-ylethyl)amino]pyridin-3-yl}-1H-indol-3-yl)methylene]-1-benzofuran-3(2H)-one] | 355 nM | 3740 nM | 5940 nM |  |
| COc1ccc2[nH]cc(/C=C3\Oc4cc(O)ccc4C3=O)c2c1 [Example 414, (2Z)-6-Hydroxy-2-[(5-methoxy-1H-indol-3-yl)methylene]-1-benzofuran-3(2H)-one] | 1850 nM | 55 nM | 281 nM |  |
